Reference: EP1519709B1, “NOVEL COSMETIC APPLICATIONS OF POLYPHENOLS AND DERIVATIVES THEREOF” (Caudalie, priority 2002, dated 2004)
Where two headings read alike, the source gives them in different places.

Molecular target: tyrosinase (enzyme EC 1.14.18,1, issue de champignon)
Test: Tyrosinase inhibition test (L-dopa to dopachrome, read at 475 nm)
Assay type: biochemical
Details: for IC50: read-out: CI50 (the source's name)
Experimental: Mélange A : l'échantillon à tester à différentes concentrations (200 μL), ainsi qu'un "contrôle" (tampon phosphate, pH 6,5), sont incubés pendant 30 minutes à 37°C en présence de tyrosinase (enzyme EC 1.14.18,1, issue de champignon; 200μL, 300 U/mL). Mélange B : 200 μL de L-dopa (2,5 mM) sont additionnés à 400 μL de tampon phosphate (pH 6,5). Après les 30 minutes d'incubation, le mélange A est ajouté au mélange B et la dopachrome produite est mesurée à 475 nm au bout d'une minute […].

[1] = mushroom tyrosinase 300 U/mL, 30 min preincubation at 37°C, phosphate buffer pH 6,5, L-dopa 2,5 mM, dopachrome at 475 nm, mean with spread, n in cell

Structure (SMILES)	IC50 [1]	further results
Oc1ccc(/C=C/c2cc(O)cc3c2[C@@H](c2cc(O)cc(O)c2)[C@H](c2ccc(O)cc2)O3)cc1 [Bloc VIII, ε-viniférine]		IC50 of the dimer relative to that of the monomer (resvératrol) (tyrosinase inhibition test): < 10 fois
Oc1ccc(C=Cc2cc(O)cc3c2C(c2cc(O)cc(O)c2)C(c2ccc(O)cc2)O3)cc1 (stereo not shown) [VIII]	10.4 µM	
Oc1ccc(C=Cc2cc(O)cc(O)c2)cc1 [Bloc II, resvératrol, reference compound]		IC50 (bounds stated in running text for the tyrosinase inhibition tests under the conditions of the examples): > 60 µM
Oc1ccc(C=Cc2cc(O)cc(O)c2)cc1 [II]	61.4 µM	
